Entries after “also recorded” stand apart in the source; their conditions may differ.
How the values were obtained:
hG9a = biological target: T1, hG9a (Homo sapiens, UniProt Q96KQ7); assay: Methylation of HA-hG9a in Cos-7 cells (pan met-K immunoprecipitation/immunoblot); assay type: cell-based, African green monkey; settings: Cos-7 cells, 24 h
T1 construct: transfected with a plasmid encoding full length HA-hG9a and treated with 2 μM UNC0646; expressed in transfected cells; host or cells: Cos-7
T1 sequence (Q96KQ7 1-1210): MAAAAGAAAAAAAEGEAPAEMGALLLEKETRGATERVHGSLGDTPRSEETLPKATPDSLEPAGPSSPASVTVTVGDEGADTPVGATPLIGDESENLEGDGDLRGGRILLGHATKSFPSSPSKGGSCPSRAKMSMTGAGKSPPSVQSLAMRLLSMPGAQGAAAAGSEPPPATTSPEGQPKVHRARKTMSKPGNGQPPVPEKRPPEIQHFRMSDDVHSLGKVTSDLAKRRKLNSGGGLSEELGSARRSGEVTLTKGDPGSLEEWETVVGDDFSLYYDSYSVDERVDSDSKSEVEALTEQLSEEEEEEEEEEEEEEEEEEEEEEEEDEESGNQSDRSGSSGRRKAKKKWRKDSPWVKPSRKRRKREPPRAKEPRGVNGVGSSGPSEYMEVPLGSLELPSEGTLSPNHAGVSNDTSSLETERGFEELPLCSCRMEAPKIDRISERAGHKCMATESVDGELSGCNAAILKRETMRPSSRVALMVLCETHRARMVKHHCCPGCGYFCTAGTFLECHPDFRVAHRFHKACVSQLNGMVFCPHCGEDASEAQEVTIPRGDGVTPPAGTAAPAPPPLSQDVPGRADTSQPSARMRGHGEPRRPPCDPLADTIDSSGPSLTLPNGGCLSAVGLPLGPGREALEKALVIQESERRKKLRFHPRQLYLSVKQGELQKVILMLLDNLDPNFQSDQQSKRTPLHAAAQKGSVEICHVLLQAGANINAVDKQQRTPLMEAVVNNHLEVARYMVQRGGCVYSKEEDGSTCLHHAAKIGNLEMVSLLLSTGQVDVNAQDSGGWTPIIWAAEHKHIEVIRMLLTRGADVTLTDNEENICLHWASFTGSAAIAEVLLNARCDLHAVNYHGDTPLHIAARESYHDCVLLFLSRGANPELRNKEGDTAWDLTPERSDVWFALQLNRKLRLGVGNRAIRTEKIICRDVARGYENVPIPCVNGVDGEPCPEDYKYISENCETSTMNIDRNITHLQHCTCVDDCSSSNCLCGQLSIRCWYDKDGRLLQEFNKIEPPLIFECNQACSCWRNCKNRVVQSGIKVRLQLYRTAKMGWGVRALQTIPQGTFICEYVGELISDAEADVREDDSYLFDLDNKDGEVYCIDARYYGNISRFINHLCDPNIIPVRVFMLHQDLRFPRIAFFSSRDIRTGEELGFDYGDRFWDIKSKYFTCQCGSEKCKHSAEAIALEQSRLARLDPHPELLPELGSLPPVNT
Procedure: Cells were transiently transfected (where indicated) using Lipofectamine 2000 (Invitrogen) with 5 μg each of the indicated plasmids according to the manufacturer's protocol. […] Protein extracts were incubated with 1 μg of the indicated primary antibodies overnight at 4° C. with shaking. Protein A/G Plus Agarose (Santa Cruz sc-2003) beads were added and the mixture was incubated 2 hr at 4° C. The immunoprecipitates were separated on SDS-PAGE. Immunoblotting was conducted with primary antibodies against HA epitope (3F10 Roche Applied Science); G9a (G6919), FLAG (F1804), (3-actin (A5441), or GAPDH (G9545) from Sigma; aurora kinase B (ab2254), HP1γ (ab10480), HP1γ (ab56978), phospho-593-HP1γ (ab45270) or pan methyllysine (ab23366) from Abcam; GR (sc-8992) from Santa Cruz; GLP (09-078), or pan phospho-threonine (AB1607) from Millipore; phospho-S211-GR (#4161), H3K9me3 (#13969), H3S10ph (#53348), Histone H3 (#4499) from Cell signaling; or E-cadherin (610182) from BD transduction laboratories. Secondary antibodies from Santa Cruz Biotechnology (anti-rat) and Promega (anti-rabbit and anti-mouse) were used for chemiluminescence detection using Super Signal West Dura (Thermo Scientific) for proteins with low expression levels and ECL prime detection reagent (Amersham) for all other proteins according to the manufacturers' instructions. In immunoprecipitation experiments 3% of the input of each sample was analyzed by immunoblot using the antibodies listed.
Lysates were immunoprecipitated (IP) with pan met-K antibody and immunoblotted with HA antibody (top), or the usage of the two antibodies was reversed (bottom). Expression of HA-tagged proteins and β-actin (loading control) in the unfractionated extracts is shown at the bottom (Input). For FIG. 17D, Cos-7 cells were transfected with a plasmid encoding full length HA-hG9a and treated with 2 μM UNC0646 or vehicle DMSO for 24 h. Lysates were immunoprecipitated with pan met-K antibody and immunoblotted with HA antibody (top), or the usage of the two antibodies was reversed (bottom).
Lysates were immunoprecipitated with pan met-K antibody and immunoblotted with HA antibody (top).

NALM6 cells = assay: Cell death assay (Presto Blue, 72 h) with dex plus inhibitor; assay type: cell-based, human; settings: NALM-6, 16 nM Alisertib, 72 h
Procedure: Cells were plated in CellStar low evaporation lid 96-well round-bottom plate at a density of 100,000 cells/ml. Directly after plating, cells were treated in triplicate with serial dilutions of dexamethasone or vehicle control (0.1% ethanol). After 72 h, cell viability of each well was analyzed in duplicate using the Presto Blue Assay Reagent (Life Technologies). Fluorescence was measured and data were analyzed with Prism6 software.
FIGS. 40A, 40B, 40C, 40D-1, 40D-2, 40D-3, and 40D-4 show Aurora kinase B inhibitors sensitizing NALM6 cells to GC-induced cell death. As shown in FIGS. 40A and 40B, NALM6 cells were treated with the indicated dex concentration in addition to 0.75 μM ZM447439 (FIG. 40A), 16 nM AZD2811 (FIG. 40B), or equivalent volume of vehicle DMSO for 72 h, and cell survival was measured by a fluorescence metabolic assay. In each condition, the value measured with dex was normalized to the fluorescence value measured with ethanol. Percentage of survival is shown as the mean±SEM of 4 independent experiments and p-values for individual dex concentrations were calculated using a paired t-test. *p≤0.05, **p≤0.01, * * *p≤0.001. F-test comparing the two curves: p≤0.001. Insets show the EC50s that were calculated as the concentration at which half the cells remained alive, compare to vehicle controls. Error bars depict the SEM of 4 independent experiments and p-values were calculated to compare AURKB inhibitor treatment to DMSO using a paired t-test ** p≤0.01, * * *p≤0.001. […] The indicated proteins were then examined by immunoblot. As shown in FIGS. 40D-1, 40D-2, 40D-3, and 40D-4, NALM6 cells pre-treated with AZD2811 (16 nM) or DMSO for 24 h, were then treated for 8 h with 100 nM dex or ethanol. mRNA levels for the indicated GR target genes were measured by RT-qPCR and normalized to β-actin mRNA levels.
FIGS. 48A, 48B, 48C, 48D, 48E, and 48F show the effect of AURKB inhibitors on EHMT2 phosphorylation and dex-induced cell death. […] In each condition, the value measured with dex was normalized to the fluorescence value measured with ethanol. Percentage of survival is shown as the mean±SEM of 4 independent experiments and p-values for individual dex concentrations were calculated using a paired t-test. *p≤0.05, **p≤0.01, * * *p≤0.001. F-test comparing the two curves: p≤0.001. EC50s were calculated as the concentration at which half the cells remained alive, compare to vehicle controls. Error bars depict the SEM of 4 independent experiments and p-value was calculated to compare ZM treatment to DMSO using a paired t-test **p≤0.01, * * *p≤0.001. […] EC50s were calculated as the concentration at which half the cells remained alive, compare to vehicle controls. Error bars depict the SEM of 4 independent experiments and p-value was calculated to compare alisertib treatment to DMSO using a paired t-test. […] (E-F) RCH-ACV cells were treated with the indicated dex concentration in addition to 0.75 μM ZM447439 (FIG. 48E), 16 nM AZD2811 (FIG. 48F), or DMSO for 72 h, and cell survival was measured by a fluorescence metabolic assay. In each condition, the value measured with dex was normalized to the fluorescence value measured with ethanol. Percentage of survival is shown as the mean±SEM of 5 individual experiments and the p-value for each dex concentration was calculated using a paired t-test. *p≤0.05, **p≤0.01, * * *p≤0.001. F-test comparing the two curves: p≤0.001.
FIGS. 55A, 55B, and 55C show JIB-04 enhances GC-induced death of B-ALL cell line NALM6.

SMILES: Nc1ncnc2c1ncn2C(C=O)OC(C=O)CO (stereo not drawn) [Adox, adenosine dialdehyde]
- pan-methyllysine antibody signal on wild type hG9a (hG9a; 40 μM): strongly decreased

SMILES: COc1cc(Nc2ncc3c(n2)-c2ccc(Cl)cc2C(c2c(F)cccc2OC)=NC3)ccc1C(=O)O [Alisertib]
- cell survival with dex (NALM6 cells): not significant; also recorded: did not have any effect

SMILES: COc1cc2c(NC3CCN(C(C)C)CC3)nc(N3CCC(F)(F)CC3)nc2cc1OCCCN1CCCC1 [UNC0642]
- pan-methyllysine antibody signal on wild type hG9a (hG9a; 2 μM inhibitor): strongly decreased
